The text below walks through data of paper PMC8998618, “A Pharmacokinetic and Metabolism Study of the TRPC6 Inhibitor SH045 in Mice by LC-MS/MS” (International Journal of Molecular Sciences, 2022).

In series [1] the test system is TRPC6. The following applies: Ca^2+ influx assays; cited from earlier work.
Series [2] is described as follows: detection of SH045 metabolites in MLM, HLM and mouse urine by LC-MS/MS. Type of series: in vitro ADME, mouse and human. The following applies: metabolite of SH045 detected in MLM, HLM (NADPH, UDPGA) and/or mouse urine after 20 mg/kg BW i.v. How it is done:
To explore metabolites of SH045 formed by microsomes, DPBS, alamethicin (25 µg/mL) and MLM or HLM (1.0 mg/mL) were pre-incubated, further incubated with SH045 MgCl2, NADPH and UDPGA, terminated, and processed for LC-MS/MS analysis as described. Positive controls with testosterone and 4-nitrophenol and negative controls were analyzed too (Supplementary Materials SM7).
Larixyl-N-methylcarbamate ((1S,4S,4aR,8aS)-4-((S)-3-hydroxy-3-methylpent-4-en-1-yl)-4a,8,8-trimethyl-3-methylenedeca-hydro-naphthalen-1-yl methylcarbamate, SH045, TRPC6 inhibitor) was synthesized as described by Häfner et al. [1]. (+)-Larixol (internal standard, IS) was isolated from Larix decidua turpentine [2]. Kolliphor® EL was obtained from Caelo (Hilden, Germany). […]
SM2 Quantification of SH045 by HPLC and tandem mass spectrometric methods (LC-MS/MS) In brief, chromatographic separation was achieved using a Zorbax Eclipse XDB-C8 column (100 × 3.0 mm, 3.5 μm 80 Å, Agilent Technologies) with linear gradient elution using water and ACN, each with 0.1 % formic acid as additive, during a total run time of 20 min. For quantification (+)-larixol was used as IS. […] Freshly prepared calibration samples for SH045 in plasma and tissue comprised eight concentration levels analyzed in duplicates (2, 5, 10, 100, 200, 800, 1200 and 1600 ng/mL). […]

Series [3] deals with FSGS-related TRPC6 channel mutants, including M132T and R175Q. Further details: method as in PMID 28800680. The following applies: including M132T and R175Q variants; cited from earlier work.

One may read the IC50 as the midpoint of a concentration-inhibition curve.

SMILES strings stand for the structures.

On to `C=CC(C)(O)CCC1C(=C)CC(OC(C)=O)C2C(C)(C)CCCC12C` (centres unmarked) [larixyl monoacetate], for which the IC50 in series [1] is about 0.5 µM.
With `CC[C@@](C)(O)CC[C@H]1C(C)C[C@H](OC(=O)NC)[C@H]2C(C)(C)CCC[C@]12C` (some centres unmarked) [M2a], the Occurrence result in series [2] was “MLM, HLM”.
`C=CC(C)(O)CCC1C(=C)CC(OC(N)=O)C2C(C)(C)CCCC12C` (centres unmarked) [larixyl-6-carbamate]: in series [1], the half-inhibitory concentration (IC50) was about 0.5 µM. For the same compound, the “inhibition of FSGS-related TRPC6 channel mutants” value in series [3] is “strong inhibitor”.
Regarding `C=C[C@](C)(CC[C@H]1C(=C)C[C@H](OC(=O)NC)[C@H]2C(C)(C)CCC[C@]12C)O[C@@H]1O[C@H](C(=O)O)[C@@H](O)[C@H](O)[C@H]1O` [M8a], the Occurrence entry in series [2] is given as “MLM, HLM”.
